Columns and labels:
[1] = Solubility of compound in SGF by HPLC analysis
[2] = Intrinsic clearance in human liver microsomes at 1 uM measured upto 30 mins by LC/MS analysis; format: ADME, Microsome; settings: read-out: CLH (converted)
[3] = Apparent permeability from apical to basolateral side in human Caco-2 cells at 50 uM incubated for 120 mins by LCMS analysis
[4] = Protein binding in human plasma assessed as free fraction incubated for 2 hrs by LC-MS/MS analysis; format: ADME, cell-free
[5] = AUC in Sprague-Dawley rat at 3 mg/kg, po administered as cassette dose and measured upto 24 hrs by LC-MS/MS analysis; format: ADME, organism-based; settings: in vivo
[6] = Cmax in Sprague-Dawley rat at 3 mg/kg, po administered as cassette dose and measured upto 24 hrs by LC-MS/MS analysis; format: ADME, organism-based; settings: in vivo
[7] = Oral bioavailability in Sprague-Dawley rat at 3 mg/kg administered as cassette dose and measured upto 24 hrs by LC-MS/MS analysis; format: ADME, organism-based; settings: in vivo
[8] = Hepatic blood flow in Sprague-Dawley rat at 0.5 mg/kg, iv administered as cassette dose and measured upto 24 hrs by LC-MS/MS analysis; format: ADME, organism-based; settings: in vivo
[9] = Half-life in Sprague-Dawley rat at 0.5 mg/kg, iv administered as cassette dose and measured upto 24 hrs by LC-MS/MS analysis; format: ADME, organism-based; settings: in vivo
[10] = Volume of distribution at steady state in Sprague-Dawley rat at 0.5 mg/kg, iv administered as cassette dose and measured upto 24 hrs by LC-MS/MS analysis; format: ADME, organism-based; settings: in vivo, read-out: Vdss
[11] = AUC in cynomolgus monkey at 2 mg/kg, po administered as cassette dose and measured upto 24 hrs by LC-MS/MS analysis; format: ADME, organism-based, Macaca fascicularis; settings: in vivo
[12] = Cmax in cynomolgus monkey at 2 mg/kg, po administered as cassette dose and measured upto 24 hrs by LC-MS/MS analysis; format: ADME, organism-based, Macaca fascicularis; settings: in vivo
[13] = Oral bioavailability in cynomolgus monkey at 2 mg/kg administered as cassette dose and measured upto 24 hrs by LC-MS/MS analysis; format: ADME, organism-based, Macaca fascicularis; settings: in vivo
[14] = Hepatic blood flow in cynomolgus monkey at 0.3 mg/kg, iv administered as cassette dose and measured upto 24 hrs by LC-MS/MS analysis; format: ADME, organism-based, Macaca fascicularis; settings: in vivo
[15] = Half-life in cynomolgus monkey at 0.3 mg/kg, iv administered as cassette dose and measured upto 24 hrs by LC-MS/MS analysis; format: ADME, organism-based, Macaca fascicularis; settings: in vivo
[16] = Volume of distribution at steady state in cynomolgus monkey at 0.3 mg/kg, iv administered as cassette dose and measured upto 24 hrs by LC-MS/MS analysis; format: ADME, organism-based, Macaca fascicularis; settings: in vivo, read-out: Vdss
[17] = In vivo inhibition of CDK2 in athymic nude mouse assessed as reduction in retinoblastoma protein phosphorylation at 30 mg/kg, po administered once daily for 5 days and measured after 24 hrs relative to control; format: functional; settings: 144 h, time 6 day
[18] = Drug concentration in athymic nude mouse plasma at 30 mg/kg, po administered as […] for 5 days and measured after 24 hrs; format: ADME, organism-based; settings: in vivo, 144 h, BLD = below limit of detection, time 6 day
OVCAR-3 = test: Antitumor activity against human OVCAR-3 cells xenografted in athymic nude mouse assessed as tumor growth inhibition at 30 mg/kg, po administered once daily for 28 days relative to control; format: functional; settings: OVCAR-3, 672 h, time 28 day, read-out: TGI
[19] = Toxicity in athymic nude mouse xenografted with human OVCAR-3 cells assessed as animal death at 30 mg/kg, po administered once daily for 28 days; format: organism-based; settings: in vivo, 672 h, time 28 day
[20] = Toxicity in athymic nude mouse xenografted with human OVCAR-3 cells assessed as adverse effect at 30 mg/kg, po administered once daily for 28 days; format: organism-based; settings: in vivo, 672 h, time 28 day
[21] = Toxicity in athymic nude mouse xenografted with human OVCAR-3 cells assessed as body weight loss at 30 mg/kg, po administered once daily for 28 days; format: organism-based; settings: in vivo, 672 h, time 28 day
Cytochrome P450 2D6 = Cytochrome P450 2D6 (Homo sapiens, UniProt P10635); test: Inhibition of CYP2D6 in human liver microsomes using bufuralol as substrate in presence of NADPH by LC-MS/MS analysis; format: ADME, Microsome
Cytochrome P450 3A4 = Cytochrome P450 3A4 (Homo sapiens, UniProt P08684); test: Inhibition of CYP3A4 in human liver microsomes using midazolam/testosterone as substrate in presence of NADPH by LC-MS/MS analysis; format: ADME, Microsome
Cytochrome P450 2C9 = Cytochrome P450 2C9 (Homo sapiens, UniProt P11712); test: Inhibition of CYP2C9 in human liver microsomes using diclofenac as substrate in presence of NADPH by LC-MS/MS analysis; format: ADME, Microsome
Cytochrome P450 2C8 = target: T1, Cytochrome P450 2C8 (Homo sapiens, UniProt P10632); test: Inhibition of CYP2C8 in human liver microsomes using amodiaquine as substrate in presence of NADPH by LC-MS/MS analysis; format: ADME, Microsome
T1 sequence (P10632 whole entry): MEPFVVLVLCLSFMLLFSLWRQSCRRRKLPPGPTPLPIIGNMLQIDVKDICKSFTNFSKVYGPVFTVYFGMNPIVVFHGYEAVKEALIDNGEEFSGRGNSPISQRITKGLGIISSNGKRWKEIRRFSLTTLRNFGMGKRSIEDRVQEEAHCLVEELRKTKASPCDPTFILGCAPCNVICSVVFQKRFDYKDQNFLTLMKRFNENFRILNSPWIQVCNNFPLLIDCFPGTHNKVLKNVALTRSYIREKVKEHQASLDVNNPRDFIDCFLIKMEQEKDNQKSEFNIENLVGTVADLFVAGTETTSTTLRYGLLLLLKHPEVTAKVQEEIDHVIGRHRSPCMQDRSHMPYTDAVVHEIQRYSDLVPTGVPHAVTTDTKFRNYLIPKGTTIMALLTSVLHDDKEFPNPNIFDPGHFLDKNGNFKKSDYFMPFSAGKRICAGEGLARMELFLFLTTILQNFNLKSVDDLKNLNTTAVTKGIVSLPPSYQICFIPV

Cytochrome P450 2C19 = Cytochrome P450 2C19 (Homo sapiens, UniProt P33261); test: Inhibition of CYP2C19 in human liver microsomes using S-mephenytoin as substrate in presence of NADPH by LC-MS/MS analysis; format: ADME, Microsome
Cytochrome P450 2B6 = target: T2, Cytochrome P450 2B6 (Homo sapiens, UniProt P20813); test: Inhibition of CYP2B6 in human liver microsomes using bupropion as substrate in presence of NADPH by LC-MS/MS analysis; format: ADME, Microsome
T2 sequence (P20813 whole entry): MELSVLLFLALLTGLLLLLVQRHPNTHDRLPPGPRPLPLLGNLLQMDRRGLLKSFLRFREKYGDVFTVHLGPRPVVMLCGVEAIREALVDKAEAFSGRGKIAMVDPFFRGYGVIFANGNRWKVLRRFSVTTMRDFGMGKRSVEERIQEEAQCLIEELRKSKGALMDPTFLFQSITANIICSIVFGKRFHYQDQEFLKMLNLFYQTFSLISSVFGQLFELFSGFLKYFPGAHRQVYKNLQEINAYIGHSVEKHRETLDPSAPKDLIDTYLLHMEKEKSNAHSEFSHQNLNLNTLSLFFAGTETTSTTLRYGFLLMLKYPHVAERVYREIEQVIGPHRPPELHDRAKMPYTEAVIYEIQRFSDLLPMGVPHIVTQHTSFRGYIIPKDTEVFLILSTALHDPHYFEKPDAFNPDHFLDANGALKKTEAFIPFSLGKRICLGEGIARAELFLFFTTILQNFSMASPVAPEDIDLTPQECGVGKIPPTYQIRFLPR

Cytochrome P450 1A2 = target: T3, Cytochrome P450 1A2 (Homo sapiens, UniProt P05177); test: Inhibition of CYP1A2 in human liver microsomes using 7-ethoxyresorufin as substrate in presence of NADPH by LC-MS/MS analysis; format: ADME, Microsome
T3 sequence (P05177 whole entry): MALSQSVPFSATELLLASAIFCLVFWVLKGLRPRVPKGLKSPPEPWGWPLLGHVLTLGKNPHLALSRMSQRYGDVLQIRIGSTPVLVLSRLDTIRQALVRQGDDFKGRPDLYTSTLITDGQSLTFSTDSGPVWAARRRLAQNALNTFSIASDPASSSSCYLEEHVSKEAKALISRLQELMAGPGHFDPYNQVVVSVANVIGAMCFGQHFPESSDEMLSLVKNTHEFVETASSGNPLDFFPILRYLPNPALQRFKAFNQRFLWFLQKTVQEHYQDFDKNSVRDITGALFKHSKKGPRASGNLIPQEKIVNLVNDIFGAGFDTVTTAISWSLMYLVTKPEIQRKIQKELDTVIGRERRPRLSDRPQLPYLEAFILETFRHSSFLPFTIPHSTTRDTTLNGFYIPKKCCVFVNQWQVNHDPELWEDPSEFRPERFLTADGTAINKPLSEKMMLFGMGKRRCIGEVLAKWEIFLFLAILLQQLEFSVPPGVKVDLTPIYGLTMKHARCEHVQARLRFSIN

hERG (KCNH2) = hERG (KCNH2) (Homo sapiens, UniProt Q12809); test: Inhibition of human ERG at 10 uM by patch clamp method relative to control; format: toxicity
hERG (KCNH2), sequence (Q12809 whole entry): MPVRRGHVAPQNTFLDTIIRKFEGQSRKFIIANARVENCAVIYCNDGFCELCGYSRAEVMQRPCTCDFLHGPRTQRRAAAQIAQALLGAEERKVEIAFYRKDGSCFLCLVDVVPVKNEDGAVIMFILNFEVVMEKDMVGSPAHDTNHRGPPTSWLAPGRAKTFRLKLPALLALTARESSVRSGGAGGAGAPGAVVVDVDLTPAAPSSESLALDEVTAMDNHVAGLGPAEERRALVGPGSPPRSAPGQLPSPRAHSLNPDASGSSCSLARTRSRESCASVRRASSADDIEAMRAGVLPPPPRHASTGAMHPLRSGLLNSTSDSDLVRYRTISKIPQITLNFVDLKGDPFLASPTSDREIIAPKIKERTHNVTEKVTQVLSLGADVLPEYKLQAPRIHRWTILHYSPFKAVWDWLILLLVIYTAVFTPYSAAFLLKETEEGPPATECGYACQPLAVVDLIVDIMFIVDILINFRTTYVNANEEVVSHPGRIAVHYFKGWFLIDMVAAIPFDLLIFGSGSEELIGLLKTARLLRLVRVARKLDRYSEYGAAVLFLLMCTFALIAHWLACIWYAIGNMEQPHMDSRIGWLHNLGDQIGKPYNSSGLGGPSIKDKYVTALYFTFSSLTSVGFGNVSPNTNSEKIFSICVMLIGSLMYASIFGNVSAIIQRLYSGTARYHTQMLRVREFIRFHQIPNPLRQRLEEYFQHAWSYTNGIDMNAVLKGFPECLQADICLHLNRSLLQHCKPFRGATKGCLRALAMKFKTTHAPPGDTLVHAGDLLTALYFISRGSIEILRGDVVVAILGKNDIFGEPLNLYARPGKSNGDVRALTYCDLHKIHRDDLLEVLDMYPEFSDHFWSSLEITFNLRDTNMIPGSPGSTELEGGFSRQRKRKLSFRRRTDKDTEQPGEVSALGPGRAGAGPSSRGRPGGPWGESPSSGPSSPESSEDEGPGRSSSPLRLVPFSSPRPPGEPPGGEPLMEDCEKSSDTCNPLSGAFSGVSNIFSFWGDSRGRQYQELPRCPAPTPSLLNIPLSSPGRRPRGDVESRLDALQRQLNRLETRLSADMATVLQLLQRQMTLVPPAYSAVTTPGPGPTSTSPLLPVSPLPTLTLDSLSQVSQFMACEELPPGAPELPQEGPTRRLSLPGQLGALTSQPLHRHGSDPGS

Cytochrome P450 2C19, sequence (P33261 whole entry): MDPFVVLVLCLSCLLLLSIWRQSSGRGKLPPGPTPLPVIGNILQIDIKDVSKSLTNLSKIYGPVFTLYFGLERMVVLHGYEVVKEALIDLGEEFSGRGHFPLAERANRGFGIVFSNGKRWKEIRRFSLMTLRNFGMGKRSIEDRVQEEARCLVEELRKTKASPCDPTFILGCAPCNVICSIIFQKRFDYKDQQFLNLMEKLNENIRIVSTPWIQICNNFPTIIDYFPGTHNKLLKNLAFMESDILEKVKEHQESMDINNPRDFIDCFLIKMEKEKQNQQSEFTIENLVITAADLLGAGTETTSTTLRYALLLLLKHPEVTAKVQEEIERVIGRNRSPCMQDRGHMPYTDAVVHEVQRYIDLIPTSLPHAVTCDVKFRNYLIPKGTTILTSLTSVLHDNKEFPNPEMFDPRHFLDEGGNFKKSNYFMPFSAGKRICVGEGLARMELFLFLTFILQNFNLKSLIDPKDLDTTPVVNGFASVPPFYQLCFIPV
Cytochrome P450 3A4, sequence (P08684 whole entry): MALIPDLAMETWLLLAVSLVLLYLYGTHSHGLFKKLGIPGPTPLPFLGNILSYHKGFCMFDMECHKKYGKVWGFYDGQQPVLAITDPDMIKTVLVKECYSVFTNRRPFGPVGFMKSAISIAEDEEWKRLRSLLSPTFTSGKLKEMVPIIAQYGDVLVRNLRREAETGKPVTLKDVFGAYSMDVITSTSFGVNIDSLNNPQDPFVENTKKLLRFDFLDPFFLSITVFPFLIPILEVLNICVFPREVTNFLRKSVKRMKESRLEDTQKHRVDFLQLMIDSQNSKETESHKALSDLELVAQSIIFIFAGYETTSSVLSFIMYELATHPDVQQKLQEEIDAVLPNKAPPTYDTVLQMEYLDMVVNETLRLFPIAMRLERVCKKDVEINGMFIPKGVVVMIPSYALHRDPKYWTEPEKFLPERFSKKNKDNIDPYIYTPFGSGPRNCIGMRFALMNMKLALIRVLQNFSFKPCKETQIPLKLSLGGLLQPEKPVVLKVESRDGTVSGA
Cytochrome P450 2D6, sequence (P10635 whole entry): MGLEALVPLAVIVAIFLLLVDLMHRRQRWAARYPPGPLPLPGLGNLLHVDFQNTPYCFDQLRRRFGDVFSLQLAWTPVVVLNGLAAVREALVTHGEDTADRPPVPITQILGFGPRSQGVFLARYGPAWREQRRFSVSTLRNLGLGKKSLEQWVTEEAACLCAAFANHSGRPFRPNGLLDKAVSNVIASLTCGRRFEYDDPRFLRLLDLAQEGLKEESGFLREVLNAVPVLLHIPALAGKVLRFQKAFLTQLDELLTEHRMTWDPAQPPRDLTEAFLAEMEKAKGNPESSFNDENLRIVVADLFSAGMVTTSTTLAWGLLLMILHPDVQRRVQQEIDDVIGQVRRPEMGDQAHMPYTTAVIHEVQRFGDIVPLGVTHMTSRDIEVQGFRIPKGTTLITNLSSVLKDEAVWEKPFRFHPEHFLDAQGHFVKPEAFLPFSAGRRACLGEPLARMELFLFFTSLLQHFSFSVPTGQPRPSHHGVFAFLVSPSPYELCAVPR
Cytochrome P450 2C9, sequence (P11712 whole entry): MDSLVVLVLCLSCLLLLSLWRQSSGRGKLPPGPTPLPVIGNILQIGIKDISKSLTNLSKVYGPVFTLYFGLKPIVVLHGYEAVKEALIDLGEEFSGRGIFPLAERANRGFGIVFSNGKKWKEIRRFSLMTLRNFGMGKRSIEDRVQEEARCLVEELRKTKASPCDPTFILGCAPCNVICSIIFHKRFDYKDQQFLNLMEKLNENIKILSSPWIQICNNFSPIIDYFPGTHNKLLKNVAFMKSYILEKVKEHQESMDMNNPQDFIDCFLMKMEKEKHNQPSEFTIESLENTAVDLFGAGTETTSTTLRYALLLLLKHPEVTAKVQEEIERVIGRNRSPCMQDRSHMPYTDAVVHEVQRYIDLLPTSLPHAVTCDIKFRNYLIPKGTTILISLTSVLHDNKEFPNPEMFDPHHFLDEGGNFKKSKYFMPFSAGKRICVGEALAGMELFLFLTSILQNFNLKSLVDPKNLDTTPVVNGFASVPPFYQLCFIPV

CC(C)(O)Cn1cc(-c2nc(NC3CCN(S(=O)(=O)C4CC4)CC3)ncc2C(F)(F)F)cn1
solubility [1]: > 400 µg/mL | CLint scaled at 1 µM [2]: 8.33 mL/min/kg | Papp A→B at 2 h, 50 µM [3]: 13 ×10⁻⁶ cm/s | fraction unbound at 2 h [4]: 0.12 | AUC at 24 h [5]: 0.751 µM·h | Cmax [6]: 757 nM | bioavailability [7]: 51% | QH [8]: 130% | half-life [9]: 2 h | Vd [10]: 1.8 L/kg | AUC at 24 h [11]: 5.65 µM·h | Cmax [12]: 962 nM | bioavailability [13]: 21% | QH [14]: 9% | half-life [15]: 2.6 h | Vd [16]: 0.4 L/kg | inhibition in vivo at 30 mg/kg [17]: ~50% | Cp [18]: Bld | inhibition in vivo at 30 mg/kg (OVCAR-3): 38% | Activity [19]: Non-Toxic | Activity [20]: Non-Toxic | Activity [21]: Non-Toxic | IC50 (Cytochrome P450 2D6): > 25 µM | IC50 (Cytochrome P450 3A4): > 25 µM | IC50 (Cytochrome P450 2C9): > 25 µM | IC50 (Cytochrome P450 2C8): > 25 µM | IC50 (Cytochrome P450 2C19): > 25 µM | IC50 (Cytochrome P450 2B6): > 25 µM | IC50 (Cytochrome P450 1A2): > 25 µM | inhibition at 10 µM (hERG (KCNH2)): 6.6%

From ChEMBL document CHEMBL5528049, “Discovery of (4-Pyrazolyl)-2-aminopyrimidines as Potent and Selective Inhibitors of Cyclin-Dependent Kinase 2” (J Med Chem, 2024)
